The results in this text go back to article PMC6014988, “Precision therapeutic targeting of human cancer cell motility” (Nature Communications, 2018).

For one data set, the system named is MMPs: 1,2,3, and 7-16. Put plainly: Qiagen extracellular matrix/adhesion and metastasis/invasion expression arrays. It is filed as cell-based, human. The settings on record: PC3-M cells, three days. From the text:
(§1) Response to Reviewers' comments:
We wish to thank the reviewers for their consideration of our manuscript. Their review and critiques have served to improve this manuscript. Below is a point-by-point response to reviewer critiques.
Changes in the manuscript and associated documents are underlined.
General comments: Much of the data is compelling and would be of interest to readers of Nature Communications, but some experimental procedures require a more thorough description and some of the data are too cursory to support the authors’ mechanistic conclusions...
Response. Thank you for your comprehensive and in formed review, we are encouraged that you felt that our data would be compelling to the readers of Nature Communications. In our revised manuscript as well as below, you will find that we have provided the requested clarifications, expanded descriptions and additional experiments requested.
1. Does the compound (herein abbreviated as ‘46’) have any impact on MMPs or other matrix-destroying activities? […] We did in fact suspect that this may be contributing to KBU2046’s anti-invasion efficacy, and as such we evaluated an entire panel of MMPs as part of two separate expression arrays. […]
2. […] Description of this experiment in both the figure legend and in Supplemental Methods is too cursory for the reader to understand how the treatment plan was selected. […]

Data set [1] deals with human PCa PC3-M cell orthotopic implants. Description: Murine orthotopic implantation model of human PCa, lung metastasis. The data set is classed as in vivo, mouse. The method, then:
Prostate cancer: orthotopic implantation: Orthotopic implantation of human GFP-PC3-M PCa cells into 6–8 week male Balb/c athymic mice (Charles River Laboratories) and quantification of distant metastasis was performed as described by us[37]. Treatment with KBU2046, incorporated into Harlan Teklad 2016S® chow, began 1 week prior to implantation. Animals were excluded from the analysis if they died and/or met the criteria for killing in the 7 day post-operative period. Experimental groups were randomly assigned to cages prior to the initiation of the study. Metastasis were scored in a blinded fashion. Specifically, animals were assigned an ID number, resultant histologic slides contained a separate pathological ID number, slides were scored in a random fashion, after which the two numbers were linked up.

The nature of data set [2]: Schiff-base formation with L-alanine, NMR. The data set is classed as physicochemical. Particulars: 27°C (18 h) then 37°C, total 72 hours.
Description: as §1
We wish to thank reviewers for their time and thoughtful review. Please find below point-by-point responses to reviewer queries. Associated changes in the manuscript are underlined.
Reviewer (your email indicates #3, the review letter indicates #4):
1. While Schiff-base formation may be reversible, the reverse reaction may not occur during the life of the protein. Considering KBU2046’s binding affinity is proposed to be driven by a single H-bonding interaction with the carbonyl in question, studies should be conducted to ensure the formation of a Schiff base is not occurring.
Response. To specifically examine Schiff-base formation, we incubated KBU2046 with L-alanine at 27°C (18 h) and then 37°C for a total 72 hours, and observed no change in 1H or 13C NMR spectra of drug from the original observed spectra for KBU2046 alone. This exposure […]
product in the presence of a biologically relevant, representative primary amine. These studies were conducted by co-author Karl Scheidt, Professor of chemistry at Northwestern University.
Attached to this letter is a detailed description of the experiment.
These new experimental findings are concordant with our other findings presented in the manuscript. […]

The target of another data set is T1, HSP90β (Homo sapiens, UniProt P08238+Q16543).
T1 construct: made in house; host or cells: E. coli (HSP90β, CDC37); SGK3 purchased from Thermo Scientific #PV3859
Put plainly: In vitro kinase assay, SGK3 phosphorylation of HSP90β. It is filed as biochemical.

Data set [3] in a line: Three-day MTT cell growth inhibition assay, 1532CPTX. The data set is classed as cell-based, human. The settings on record: human, 1532CPTX cells.
Another data set has as its system 1532CPTX. Described as above. It is filed as cell-based, human. The settings on record: Homo sapiens, 72 h, 3 days.

A word on the viability: it is the share of living cells, or the viability signal relative to a control. Usually IC20 stands for the concentration at which the effect reaches the 20% level. The IC50 is the point on the concentration scale where inhibition reaches its midpoint.

Several values for one entry are separate records, joined by “and”; a condition that tells them apart may be missing. Identical values can stand only once.

T1 sequence (P08238 whole entry): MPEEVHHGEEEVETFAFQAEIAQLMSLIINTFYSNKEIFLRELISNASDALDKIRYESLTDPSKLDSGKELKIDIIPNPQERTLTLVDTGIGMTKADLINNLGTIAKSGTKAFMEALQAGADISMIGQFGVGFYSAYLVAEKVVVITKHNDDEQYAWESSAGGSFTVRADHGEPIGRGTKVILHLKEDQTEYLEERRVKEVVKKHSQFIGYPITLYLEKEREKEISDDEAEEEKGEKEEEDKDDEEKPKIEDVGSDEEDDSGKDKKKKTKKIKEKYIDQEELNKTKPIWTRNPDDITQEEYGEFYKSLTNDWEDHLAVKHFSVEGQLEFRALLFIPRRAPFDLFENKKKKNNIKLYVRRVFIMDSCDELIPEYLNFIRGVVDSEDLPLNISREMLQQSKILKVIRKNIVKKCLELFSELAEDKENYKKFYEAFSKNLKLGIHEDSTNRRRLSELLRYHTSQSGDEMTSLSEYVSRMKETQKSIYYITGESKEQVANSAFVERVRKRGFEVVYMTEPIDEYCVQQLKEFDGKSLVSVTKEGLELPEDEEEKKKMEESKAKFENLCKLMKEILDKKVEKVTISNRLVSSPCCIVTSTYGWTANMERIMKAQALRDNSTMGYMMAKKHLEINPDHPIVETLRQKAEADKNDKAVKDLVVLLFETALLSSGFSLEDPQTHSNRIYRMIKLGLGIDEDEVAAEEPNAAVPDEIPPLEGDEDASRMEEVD
T1 sequence (Q16543 whole entry): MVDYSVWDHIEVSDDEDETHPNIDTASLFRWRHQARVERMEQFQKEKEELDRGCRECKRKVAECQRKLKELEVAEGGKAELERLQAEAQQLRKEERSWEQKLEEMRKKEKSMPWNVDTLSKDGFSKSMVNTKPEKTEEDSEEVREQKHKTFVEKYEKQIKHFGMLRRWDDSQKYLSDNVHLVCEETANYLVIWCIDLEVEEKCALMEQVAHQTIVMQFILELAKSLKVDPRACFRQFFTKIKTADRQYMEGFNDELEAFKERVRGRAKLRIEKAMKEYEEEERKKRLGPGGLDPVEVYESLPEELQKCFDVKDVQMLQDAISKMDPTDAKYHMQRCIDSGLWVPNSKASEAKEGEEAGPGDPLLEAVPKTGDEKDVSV

Turning to `O=C1c2ccccc2OCC1c1ccc(F)cc1` (racemic) [KBU2046, (±)-3(4-fluorophenyl)chroman-4-one], the “expression of MMPs and other array members” value with MMPs: 1,2,3, and 7-16 is “no significant differences”. Besides, in data set [1] (KBU2046 in chow, dose-dependent), the decrease in metastasis result is given as “up to 92%”. For the same molecule, the suppression of metastasis in data set [1] (at a plasma concentration of 24 nM) was 92% and > 90%. The primary tumor growth result in data set [1] (tumor weight, mice of Fig. 2a) is reported as “does not inhibit primary tumor cell growth”. The “change in 1H or 13C NMR spectra (Schiff-base formation)” value in data set [2] is recorded as “no change”. In addition, at HSP90β (HSP90β, CDC37, SGK3), the “SGK3-mediated phosphorylation of HSP90β” value is “phosphorylation was further increased”. Besides, on HSP90β (with MAP3K6 added), the “SGK3-mediated phosphorylation of HSP90β” value was “decreases in the presence of KBU2046”. The molecule further gave a viability at 3 days, 50 µM in data set [3] of 99.4%. In the data set on 1532CPTX, the concentration for an effect of 20% (IC20) is over 50 µM and the IC50 is over 50 µM.
